Measurements taken from US20220252625A1, “TREATMENT AND DIAGNOSIS OF CHRONIC INFLAMMATORY CONDITIONS IN THE LOWER URINARY TRACT” (SELECTIMMUNE PHARMA AB, priority 2019, published 2022).
Several values for one entry are separate records, joined by “and”; a condition that tells them apart may be missing. Equal values may be shown once. Entries after “also recorded” stand apart in the source; their conditions may differ.

How the values were obtained:
Substance P = experiment: Urine Substance P (SP) concentration, patients with chronic cystitis; assay type: in vivo, human
Protocol: Samples: Blood and urine samples for investigation of inflammatory processes as well as genetic and proteomic analyses.
For evaluation of the levels of systemic and local inflammatory processes, analyses of CRP, neutrophil count and Interleukins are performed in serum and urine.
To be able to define a treatment group where anakinra might serve as an effective therapeutic option, we searched for urine biomarkers. In addition to patient urine samples, samples were collected from healthy controls to compare urine concentrations of IL-1β and Substance P (SP). […] In contrast, SP concentrations was increased in patients during maximum symptoms (209 vs 75 pg/ml, P=0.003), indicating a biomarker for bladder inflammation (FIG. 2).

[1] = system: neuroinflammation and IL-1-dependent gene expression; experiment: Ten-patient CPPS trial: gene expression analysis of peripheral blood RNA; assay type: in vivo, human
From the text: Blood samples for DNA- and RNA-analyses as well as urine samples for proteomics are obtained throughout the study.

[2] = system: patients with CPPS (Bladder, Urethral and Prostate Pain phenotype); experiment: Clinical study, nine CPPS patients: symptom scoring (frequency, pain, QoL), side effects; assay type: in vivo, human; conditions: for clinical response in the detailed patient description, words: one patient per block (Patient 1-9); for Long-term follow-up: Comment: s.c. 100 mg long-term regimen, observation 24-397 days
From the text: The effect of anakinra in the treatment of CPPS was studied in a clinical study. Inclusion criteria were CPPS mainly with the Bladder Pain phenotype, but also the with the Urethral and Prostate Pain phenotype. Exclusion criteria were uncontrolled diabetes mellitus, treatment for malignant disease within the preceding 10 years, pregnancy and age <18 years and ongoing infectious diseases, including urinary tract infections, and neutropenia (<1.5×10^9/L). Patients gave informed consent for the use of unidentified personal clinical data for research purposes. Included patients were examined using clinical standard methods to rule out any ongoing disease. Blood and serum for hemoglobulin, liver and kidney function tests and White Blood Cell (WBC) counts were analysed. Urine was obtained for dip stick test (leukocytesteras for WBC estimation, the nitur test for ruling out bacteriuria), standard urinary Interleukins (IL6, IL8 and IL1b) and for urine culture. Cystoscopy and CT urography were performed in all patients. Blood and serum analysis and cystoscopy were repeated approximately two weeks after the start of treatment, and after approximately three months. Nine patients were recruited (Table 2).
After inclusion, patients were treated with anakinra 100 mg by self-administrated subcutaneous injection, repeated once daily as a maximum, or (if relief of symptoms and pain) on demand when symptoms or pain recurred. Regularly symptom scoring on frequency, supra-pubic/bladder pain/prostate/urethral pain and Quality of Life was performed to evaluate treatment effect.

[3] = system: neuro-inflammation, TLR dependent pattern recognition and IL-1 signaling; IL-1R1 dependent gene network; experiment: BPS trial: transcriptomic analysis of peripheral blood RNA; assay type: in vivo, human; conditions: for gene expression, words: peripheral blood RNA
From the text: a) Schematic of the study protocol. Ten patients with a long history of BPS (ref EAU guidelines) were enrolled after informed consent and instructed to fill in a questionnaire detailing frequency of urination, pain, frequency of pain medication and quality of life. Laboratory samples were obtained at diagnosis, after the initiation of Kineret treatment (n=10), during the “treatment break” and after continuation of Kineret treatment (n=9). Neuropeptides involved in the pain response (Substance P) were quantified in urine. Peripheral blood RNA was subjected to genome wide transcriptomic analysis to define molecular effects of Kineret treatment.
To further understand the molecular basis of these effects, gene expression was analyzed longitudinally in RNA samples obtained; at onset, when the patients were in pain; at the time of maximum treatment effect in the first round; when pain returned during the treatment break; after reintroduction of Anakinra and at follow up, after 1-2 years of treatment. […] Due to the pronounced effect on IL-1 related genes, we further investigated a gene network downstream of IL-1R1. In 8 out of 10 patients a marked reduction in IL-1R1 dependent gene expression was detected, primarily genes including CXCL1, IL1RAP CXCL3 and the IL1R1 gene itself.

NK1R and its ligand SP = conditions: mice; cited from earlier work
[4] = post treatment, individual patients
[5] = pre treatment baseline, individual patients

Which “urine SP levels after Anakinra treatment” value (Substance P; FIG. 3) does the source give for “anakinra: interleukin-1 receptor antagonist (r-metHuIL-1ra) produced in Escherichia coli; recombinant, slightly modified version of the human interleukin-1 receptor antagonist protein” here?
Its value is “reduced”.

And the “urine SP concentration at time of minimum symptom, after treatment” value (Substance P; paired samples, P=0.02)?
The value was 136 pg/mL.

And the “urine SP concentration at time of maximum symptom” value (Substance P; paired samples, baseline of the comparison, P=0.02)?
Its value is 243 pg/mL.

What about the “gene expression at the RNA level, words” value [1] of the same substance?
The value was “inhibited neuroinflammation and IL-1-dependent gene expression; also recorded: reduction in neuro-inflammation”.

What about the “side effects” value ([2]; 100 mg s.c.) of the same substance?
The value was “sparse and mild; also recorded: two cases of skin reaction at the place of injection; also recorded: one case of headache post injection; also recorded: without side effects; also recorded: minor headache”.

What about the Side effect ([2]; 100 mg s.c., individual patients) of the same substance?
The Side effect was “local s.c. irritation; also recorded: not reported; also recorded: headache post inj”.

And the “clinical response in the detailed patient description, words” value ([2]; 100 mg s.c.)?
Its value is “subjectively significantly improved with a clear reduction in frequency and local pain from the bladder; also recorded: pain relief followed immediately; also recorded: constant relief of symptoms; also recorded: the urge, frequency and bladder pain dramatically decreased; also recorded: the urgency and frequency was dramatically reduced; also recorded: relief of fever attacks and arthralgia, as well as reduced urgency and frequency”.

And the “clinical response in the detailed patient description, words” value ([2]; 100 mg s.c., listed as Anakinra)?
The value was “significant symptom and pain relief; also recorded: constant relief of symptoms”.

And the “maximum effect generally lasted” value ([2]; after one s.c. inj. of 100 mg)?
The value was 2 to 3 days.

And the “maximum effect on symptoms seen within” value ([2]; after one s.c. inj. of 100 mg, all nine patients)?
Its value is 1 to 24 h.

And the “symptoms as measured by symptom scoring, words” value ([2]; all patients)?
The value was “dramatically reduced symptoms”.

And the “treatment effect during long-term follow-up, words” value ([2]; all patients)?
Its value is “consistent”.

And the “experienced quality of life (QoL), words” value ([2]; human, in vivo)?
The value was “increased in all patients; also recorded: highly increased, or increased”.

And the “number of micturitions at night-time, words” value ([2]; human, in vivo)?
The value was “generally reduced”.

And the “number of micturitions during daytime, words” value ([2]; human, in vivo)?
The value was “reduced in all patients”.

And the “pain experienced by the patients, words” value ([2]; human, in vivo)?
Its value is “decreased dramatically”.

What about the “patients completely free from pain” value ([2]; of nine patients) of the same substance?
Its value is “five out of the nine”.

What about the “Frequency (nycturia) post (number of micturations during nighttime)” value [2, 4] of the same substance?
The value was “(0) and (1) (6×) and (2)”.

And the “Frequency post (number of micturations during daytime)” value [2, 4]?
Its value is 5 (2×) and 4 (2×) and 6 (3×) and 8.

What about the “Frequency (nycturia) pre (number of micturations during nighttime)” value [2, 5] of the same substance?
The value was “(1-2) and (5) (3×) and (3) (2×) and (4) and (1)”.

And the “Frequency pre (number of micturations during daytime)” value [2, 5]?
The value was 12 (4×) and 11 and 8 (2×) and 7.

What about the “Long-term follow-up: Comment” value ([2]; individual patients, 100 mg s.c. dosing 1 per 2-4 weeks) of the same substance?
The value was “increased QoL,; also recorded: symptom free”.

And the “Long-term follow-up: Comment” value ([2]; individual patients, 100 mg s.c. dosing 1 per 2-3 days)?
The value was “highly increased QoL”.

What about the “Long-term follow-up: Comment” value ([2]; individual patients, 100 mg s.c. dosing 1 per day) of the same substance?
Its value is “highly increased QoL,; also recorded: planned cystectomy postponed”.

And the “Long-term follow-up: Comment” value ([2]; individual patients, 100 mg s.c. dosing 1 per week)?
Its value is “highly increased QoL; also recorded: highly increased QoL,; also recorded: highly increased QoL;”.

What about the QoL reduction post ([2]; score 0-6, 0 not reduced QoL, post treatment, individual patients) of the same substance?
Its QoL reduction post is 2 (2×) and 1 (2×) and 0 (5×).

And the Pain post ([2]; score 0-6, 0 symptom-free, post treatment, individual patients)?
Its Pain post is 2 (2×) and 1 (2×) and 0 (5×).

And the Pain pre ([2]; score 0-6, 6 severe pain, pre treatment baseline, individual patients)?
The Pain pre was 5 (3×) and 5-6 and 6 and 4 (4×).

What about the QoL reduction pre ([2]; score 0-6, 6 severely reduced QoL, pre treatment baseline, individual patients) of the same substance?
Its QoL reduction pre is 5 (3×) and 5-6 and 6 (2×) and 4 (3×).

And the “patients with marked reduction in IL-1R1 dependent gene expression” value ([3]; genes including CXCL1, IL1RAP, CXCL3, IL1R1)?
Its value is 8 out of 10.

What about the “gene expression, words” value [3] of the same substance?
The value was “inhibited by treatment”.

And the “gene expression, words” value ([3]; listed as Kineret)?
Its value is “inhibited”.

What about the “expression of NK1R and SP in the bladder mucosa, words” value (NK1R and its ligand SP) of the same substance?
Its value is “reduced the expression of the pain receptor NK1R and its ligand SP”.
